Legend:
Assay in all cases: In vitro antibacterial evaluation: minimum inhibitory concentration (MIC), broth dilution method
Assay type in all cases: cell-based
Conditions in all cases: 18 hours at 35° C.
Enterococcus sp. = tested on: Enterococcus sp.
Method in brief: (§1)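 Following NCCLS approved standard M7-A2, compounds are serially diluted from 64 to 0.06 μg/mL in Muller-Hinton II […] and inoculated at 5×10^5 CFU/mL; the MIC is the minimum concentration at which growth is inhibited.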

Escherichia coli = tested on: Escherichia coli
Method in brief: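 An MIC is reported for each organism as the least concentration giving inhibition, using broth dilution over 64-0.06 μg/mL with a 5×10^5 CFU/mL inoculum.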

Staphylococcus sp. = tested on: Staphylococcus sp.
Method in brief: as §1

Streptococcus sp. = tested on: Streptococcus sp.
Method in brief: as §1

Substance: β-O-[(Heptylamino)carbonyl]-cyclo[glycyl-β-methylphenylalanyl-O-(4-O-hexopyranosylhexopyranosyl)tyrosyl-3-(2-iminoimidazolidin-4-yl)seryl-3-(3-hexopyranosyl-2-iminoimidazolidin-4-yl)serylseryl] [Example 253a]
- MIC Enterococcus avium (GC 4558) (Enterococcus sp.; Enterococcus avium (GC 4558)): 16 µg/mL
- MIC Enterococcus faecalis (ATCC 29212) (Enterococcus sp.; Enterococcus faecalis (ATCC 29212)): 16 µg/mL
- MIC Enterococcus faecalis (GC 2242) (Enterococcus sp.; Enterococcus faecalis (GC 2242)): 16 µg/mL
- MIC Enterococcus faecalis (GC 2691) (Enterococcus sp.; Enterococcus faecalis (GC 2691)): 16 µg/mL
- MIC Enterococcus faecalis (GC 3059) (Enterococcus sp.; Enterococcus faecalis (GC 3059)): 32 µg/mL
- MIC Enterococcus faecalis (GC 4552) (Enterococcus sp.; Enterococcus faecalis (GC 4552)): 32 µg/mL
- MIC Enterococcus faecalis (GC 4553) (Enterococcus sp.; Enterococcus faecalis (GC 4553)): 16 µg/mL
- MIC Enterococcus faecalis (GC 4554) (Enterococcus sp.; Enterococcus faecalis (GC 4554)): 32 µg/mL
- MIC Enterococcus faecalis (GC 6189) (Enterococcus sp.; Enterococcus faecalis (GC 6189)): 16 µg/mL
- MIC Enterococcus faecium (GC 2243) (Enterococcus sp.; Enterococcus faecium (GC 2243)): 16 µg/mL
- MIC Enterococcus faecium (GC 4556) (Enterococcus sp.; Enterococcus faecium (GC 4556)): 16 µg/mL
- MIC Enterococcus faecium (GC 4557) (Enterococcus sp.; Enterococcus faecium (GC 4557)): 4 µg/mL
- MIC Enterococcus faecalis (ATCC 29212) (Enterococcus sp.; broth dilution, strain ATCC 29212): 16 µg/mL
- MIC Enterococcus faecalis (GC 2242) (Enterococcus sp.; broth dilution, strain GC 2242): 16 µg/mL
- MIC Enterococcus faecium (GC 2243) (Enterococcus sp.; broth dilution, strain GC 2243): 16 µg/mL
- MIC Enterococcus faecalis (GC 2691) (Enterococcus sp.; broth dilution, strain GC 2691): 16 µg/mL
- MIC Enterococcus faecalis (GC 3059) (Enterococcus sp.; broth dilution, strain GC 3059): 32 µg/mL
- MIC Enterococcus faecalis (GC 4552) (Enterococcus sp.; broth dilution, strain GC 4552): 32 µg/mL
- MIC Enterococcus faecalis (GC 4553) (Enterococcus sp.; broth dilution, strain GC 4553): 16 µg/mL
- MIC Enterococcus faecalis (GC 4554) (Enterococcus sp.; broth dilution, strain GC 4554): 32 µg/mL
- MIC Enterococcus faecium (GC 4556) (Enterococcus sp.; broth dilution, strain GC 4556): 16 µg/mL
- MIC Enterococcus faecium (GC 4557) (Enterococcus sp.; broth dilution, strain GC 4557): 4 µg/mL
- MIC Enterococcus avium (GC 4558) (Enterococcus sp.; broth dilution, strain GC 4558): 16 µg/mL
- MIC Enterococcus faecalis (GC 6189) (Enterococcus sp.; broth dilution, strain GC 6189): 16 µg/mL
- MIC Escherichia coli (ATCC 25922) (Escherichia coli; Escherichia coli (ATCC 25922)): >64 µg/mL
- MIC Escherichia coli (GC 4559) (Escherichia coli; Escherichia coli (GC 4559)): >64 µg/mL
- MIC Escherichia coli (GC 4560) (Escherichia coli; Escherichia coli (GC 4560)): 2 µg/mL
- MIC Coagulase Negative Staphylococcus (GC 4547) (Staphylococcus sp.; Coagulase Negative Staphylococcus (GC 4547)): 4 µg/mL
- MIC Coagulase Negative Staphylococcus (GC 4548) (Staphylococcus sp.; Coagulase Negative Staphylococcus (GC 4548)): 4 µg/mL
- MIC Coagulase Negative Staphylococcus (GC 4549) (Staphylococcus sp.; Coagulase Negative Staphylococcus (GC 4549)): 1 µg/mL
- MIC Coagulase Negative Staphylococcus (GC 4551) (Staphylococcus sp.; Coagulase Negative Staphylococcus (GC 4551)): 8 µg/mL
- MIC Coagulase Negative Staphylococcus (GC 6257) (Staphylococcus sp.; Coagulase Negative Staphylococcus (GC 6257)): 1 µg/mL
- MIC Staphylococcus aureus (ATCC 29213) (Staphylococcus sp.; Staphylococcus aureus (ATCC 29213)): 4 µg/mL
- MIC Staphylococcus aureus (GC 1131) (Staphylococcus sp.; Staphylococcus aureus (GC 1131)): 4 µg/mL
- MIC Staphylococcus aureus (GC 3051) (Staphylococcus sp.; Staphylococcus aureus (GC 3051)): 2 µg/mL
- MIC Staphylococcus aureus (GC 3053) (Staphylococcus sp.; Staphylococcus aureus (GC 3053)): 4 µg/mL
- MIC Staphylococcus aureus (GC 4541) (Staphylococcus sp.; Staphylococcus aureus (GC 4541)): 4 µg/mL
- MIC Staphylococcus aureus (GC 4542) (Staphylococcus sp.; Staphylococcus aureus (GC 4542)): 4 µg/mL
- MIC Staphylococcus aureus (GC 4544) (Staphylococcus sp.; Staphylococcus aureus (GC 4544)): 4 µg/mL
- MIC Staphylococcus aureus (GC 4545) (Staphylococcus sp.; Staphylococcus aureus (GC 4545)): 2 µg/mL
- MIC Staphylococcus aureus-SMITH (GC 4543) (Staphylococcus sp.; Staphylococcus aureus-SMITH (GC 4543)): 2 µg/mL
- MIC Staphylococcus haemolyticus (GC 4546) (Staphylococcus sp.; Staphylococcus haemolyticus (GC 4546)): 4 µg/mL
- MIC Staphylococcus aureus (ATCC 29213) (Staphylococcus sp.; broth dilution, strain ATCC 29213): 4 µg/mL
- MIC Staphylococcus aureus (GC 1131) (Staphylococcus sp.; broth dilution, strain GC 1131): 4 µg/mL
- MIC Staphylococcus aureus (GC 3051) (Staphylococcus sp.; broth dilution, strain GC 3051): 2 µg/mL
- MIC Staphylococcus aureus (GC 3053) (Staphylococcus sp.; broth dilution, strain GC 3053): 4 µg/mL
- MIC Staphylococcus aureus (GC 4541) (Staphylococcus sp.; broth dilution, strain GC 4541): 4 µg/mL
- MIC Staphylococcus aureus (GC 4542) (Staphylococcus sp.; broth dilution, strain GC 4542): 4 µg/mL
- MIC Staphylococcus aureus-SMITH (GC 4543) (Staphylococcus sp.; broth dilution, strain GC 4543): 2 µg/mL
- MIC Staphylococcus aureus (GC 4544) (Staphylococcus sp.; broth dilution, strain GC 4544): 4 µg/mL
- MIC Staphylococcus aureus (GC 4545) (Staphylococcus sp.; broth dilution, strain GC 4545): 2 µg/mL
- MIC Staphylococcus haemolyticus (GC 4546) (Staphylococcus sp.; broth dilution, strain GC 4546): 4 µg/mL
- MIC Coagulase Negative Staphylococcus (GC 4547) (Staphylococcus sp.; broth dilution, strain GC 4547): 4 µg/mL
- MIC Coagulase Negative Staphylococcus (GC 4548) (Staphylococcus sp.; broth dilution, strain GC 4548): 4 µg/mL
- MIC Coagulase Negative Staphylococcus (GC 4549) (Staphylococcus sp.; broth dilution, strain GC 4549): 1 µg/mL
- MIC Coagulase Negative Staphylococcus (GC 4551) (Staphylococcus sp.; broth dilution, strain GC 4551): 8 µg/mL
- MIC Coagulase Negative Staphylococcus (GC 6257) (Staphylococcus sp.; broth dilution, strain GC 6257): 1 µg/mL
- MIC Streptococcus agalactiae (GC 4564) (Streptococcus sp.; Streptococcus agalactiae (GC 4564)): 1 µg/mL
- MIC Streptococcus pneumoniae (ATCC 6301) (Streptococcus sp.; Streptococcus pneumoniae (ATCC 6301)): 0.5 µg/mL
- MIC Streptococcus pneumoniae (GC 1894) (Streptococcus sp.; Streptococcus pneumoniae (GC 1894)): 0.25 µg/mL
- MIC Streptococcus pneumoniae (GC 4565) (Streptococcus sp.; Streptococcus pneumoniae (GC 4565)): 0.5 µg/mL
- MIC Streptococcus pyogenes (GC 4563) (Streptococcus sp.; Streptococcus pyogenes (GC 4563)): 1 µg/mL
- MIC Streptococcus pneumoniae (ATCC 6301) (Streptococcus sp.; broth dilution, strain ATCC 6301): 0.5 µg/mL
- MIC Streptococcus pneumoniae (GC 1894) (Streptococcus sp.; broth dilution, strain GC 1894): 0.25 µg/mL
- MIC Streptococcus pyogenes (GC 4563) (Streptococcus sp.; broth dilution, strain GC 4563): 1 µg/mL
- MIC Streptococcus agalactiae (GC 4564) (Streptococcus sp.; broth dilution, strain GC 4564): 1 µg/mL
- MIC Streptococcus pneumoniae (GC 4565) (Streptococcus sp.; broth dilution, strain GC 4565): 0.5 µg/mL

From patent publication US8247211B2, “Glycopeptide antibiotics” (American Cyanamid Company, priority 2001, dated 2012)
